For 21 molecules, IC50 results are on record in patent US10160748B2 (AbbVie Inc., priority 2015, dated 2018).

This assay deals with TNFα trimer (Homo sapiens, UniProt P01375). The assay can be described thus: TNFα FP Competitive Binding Assay. To be noted: FP binding assay; 20 nM TNFα trimer, 1 nM OregonGreen488 probe; read-out: TNF IC50. The method, boiled down:
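Compounds in 12-point 1:3 series, final top 100 μM (2.0% DMSO) or 338 μM (3.4% DMSO), displace 1 nM fluorescent probe from 20 nM TNFα trimer. After 18-24 h incubation plus 1 h rt equilibration, background-subtracted polarization measured and curves fitted with variable slope.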

TNFα trimer, sequence (P01375 77-233 limits assumed): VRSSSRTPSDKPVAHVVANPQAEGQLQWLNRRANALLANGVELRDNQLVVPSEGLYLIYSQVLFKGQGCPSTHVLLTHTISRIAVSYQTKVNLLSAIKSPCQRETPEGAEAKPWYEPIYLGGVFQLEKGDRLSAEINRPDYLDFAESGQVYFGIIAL

For orientation: IC50 means the point on the concentration scale where inhibition reaches its midpoint. On to `Cn1c(=O)c2ccc(-c3cnc(N4CCN5C(=O)NC[C@@H]5C4)nc3)cc2n1Cc1cc(Cn2cncn2)ccc1OC(F)F` [Example 113, (R)-7-(5-(1-(5-((1H-1,2,4-Triazol-1-yl)methyl)-2-(difluoromethoxy)benzyl)-2-methyl-3-oxo-2,3-dihydro-1H-indazol-6-yl)pyrimidin-2-yl)hexahydroimidazo[1,5-a]pyrazin-3(2H)-one], for which the IC50 is under 1000 nM.

For `CC(=O)N1CCN(c2ncc(-c3ccc4c(=O)n(C)n(Cc5cc(CC(C)O)ccc5OC(F)F)c4c3)cn2)C[C@H]1C` (stereo partly drawn) [Example 114, 6-(2-((R)-4-Acetyl-3-methylpiperazin-1-yl)pyrimidin-5-yl)-1-(2-(difluoromethoxy)-5-(2-hydroxypropyl)benzyl)-2-methyl-1H-indazol-3(2H)-one], the half-inhibitory concentration (IC50) fell in the range of 1000 to 10000 nM.

Consider `CC(=O)N1CCN(c2ncc(-c3ccc4c(=O)n(C)n(Cc5cc(CO)ccc5C(F)(F)F)c4c3)cn2)CC1` [Example 115, 6-(2-(4-Acetylpiperazin-1-yl)pyrimidin-5-yl)-1-(5-(hydroxymethyl)-2-(trifluoromethyl)benzyl)-2-methyl-1H-indazol-3(2H)-one], for which the IC50 is under 1000 nM.

For `Cc1cccc(C(C)n2c3cc(-c4cnc(N5CCN(C(=O)CO)[C@H](C)C5)nc4)ccc3c(=O)n2C)c1` (stereo partly drawn) [Example 116, 6-(2-((R)-4-(2-hydroxyacetyl)-3-methylpiperazin-1-yl)pyrimidin-5-yl)-2-methyl-1-(1-(m-tolyl)ethyl)-1H-indazol-3(2H)-one], the 50% inhibitory concentration (IC50) was under 1000 nM.

In the case of `CC(=O)N1CCN(c2ncc(-c3ccc4c(=O)n(C)n(Cc5cn(C(C)=O)cc5C(F)(F)F)c4c3)cn2)C[C@H]1C` [Example 119, (R)-6-(2-(4-Acetyl-3-methylpiperazin-1-yl)pyrimidin-5-yl)-1-((1-acetyl-4-(trifluoromethyl)-1H-pyrrol-3-yl)methyl)-2-methyl-1H-indazol-3(2H)-one], the IC50 is under 1000 nM.

For `Cc1ccc(OC(F)F)c(Cn2c3cc(-c4cnc(C(C)(C)N)nc4)ccc3c(=O)n2C)c1` [Example 120, 6-(2-(2-Aminopropan-2-yl)pyrimidin-5-yl)-1-(2-(difluoromethoxy)-5-methylbenzyl)-2-methyl-1H-indazol-3(2H)-one], the IC50 is under 1000 nM.

On to `C[C@@H]1CN(C(=O)CO)CCN1c1ncc(-c2ccc3c(=O)n(C)n(Cc4ccccc4OC(F)F)c3c2F)cn1` [Example 121, (R)-1-(2-(Difluoromethoxy)benzyl)-7-fluoro-6-(2-(4-(2-hydroxyacetyl)-2-methylpiperazin-1-yl)pyrimidin-5-yl)-2-methyl-1H-indazol-3(2H)-one], for which the IC50 is under 1000 nM.

On to `Cn1c(=O)c2ccc(-c3cnc(C(C)(C)O)nc3)cc2n1Cc1cc(NCC(C)(C)O)ccc1Cl` [Example 122, 1-(2-Chloro-5-((2-hydroxy-2-methylpropyl)amino)benzyl)-6-(2-(2-hydroxypropan-2-yl)pyrimidin-5-yl)-2-methyl-1H-indazol-3(2H)-one], for which the half-inhibitory concentration (IC50) fell in the range of 1000 to 10000 nM.

`Cn1cc(Cn2c3cc(-c4cnc(N5CCN6C(=O)NC[C@H]6C5)nc4)ccc3c(=O)n2C)c(C(F)(F)F)c1` [Example 123, (S)-7-(5-(2-Methyl-1-((1-methyl-4-(trifluoromethyl)-1H-pyrrol-3-yl)methyl)-3-oxo-2,3-dihydro-1H-indazol-6-yl)pyrimidin-2-yl)hexahydroimidazo[1,5-a]pyrazin-3(2H)-one]: the IC50 was under 1000 nM.

For the molecule `Cc1ccc(OC(F)F)c(Cn2c3cc(-c4cnc(C(C)C)nc4)ccc3c(=O)n2C)c1` [Example 124, 1-(2-(Difluoromethoxy)-5-methylbenzyl)-6-(2-isopropylpyrimidin-5-yl)-2-methyl-1H-indazol-3(2H)-one], the IC50 is under 1000 nM.

As to `Cn1c(=O)c2ccc(-c3cnc(C(C)(C)O)nc3)cc2n1Cc1cc(N2CCOCC2)ccc1OC(F)F` [Example 125, 1-(2-(Difluoromethoxy)-5-morpholinobenzyl)-6-(2-(2-hydroxypropan-2-yl)pyrimidin-5-yl)-2-methyl-1H-indazol-3(2H)-one], the IC50 is 1000 to 10000 nM.

For the molecule `C[C@@H]1CN(C(=O)CO)CCN1c1ncc(-c2cc3c(cc2F)c(=O)n(C)n3Cc2ccccc2OC(F)F)cn1` [Example 126, (R)-1-(2-(Difluoromethoxy)benzyl)-5-fluoro-6-(2-(4-(2-hydroxyacetyl)-2-methylpiperazin-1-yl)pyrimidin-5-yl)-2-methyl-1H-indazol-3(2H)-one], the IC50 is under 1000 nM.

Turning to `Cn1c(=O)c2ccc(-c3cnc(C(C)(C)O)nc3)cc2n1Cc1cn(Cc2cccnc2)cc1C(F)(F)F` [Example #127], the concentration for half-maximal inhibition (IC50) is under 1000 nM.

With `Cn1c(=O)c2ccc(-c3cnc(C(C)(C)O)nc3)cc2n1Cc1cn(Cc2ccnnc2)cc1C(F)(F)F` [Example #128, 6-(2-(2-Hydroxypropan-2-yl)pyrimidin-5-yl)-2-methyl-1-((1-(pyridazin-4-ylmethyl)-4-(trifluoromethyl)-1H-pyrrol-3-yl)methyl)-1H-indazol-3(2H)-one], the IC50 lay within 1000 to 10000 nM.

Consider `CC(=O)N1CCN(c2ncc(-c3ccc4c(=O)n(C)n(Cc5cc(CN6CCN(C)C6=O)ccc5OC(F)F)c4c3)cn2)C[C@H]1C` [Example #129*, (R)-6-(2-(4-Acetyl-3-methylpiperazin-1-yl)pyrimidin-5-yl)-1-(2-(difluoromethoxy)-5-((3-methyl-2-oxoimidazolidin-1-yl)methyl)benzyl)-2-methyl-1H-indazol-3(2H)-one], for which the half-maximal inhibitory concentration (IC50) fell in the range of 1000 to 10000 nM.

Regarding `COc1c[nH]nc1Cn1cc(Cn2c3cc(-c4cnc(C(C)(C)O)nc4)ccc3c(=O)n2C)c(C(F)(F)F)c1` [Example #130, 6-(2-(2-Hydroxypropan-2-yl)pyrimidin-5-yl)-1-((1-((4-methoxy-1H-pyrazol-3-yl)methyl)-4-(trifluoromethyl)-1H-pyrrol-3-yl)methyl)-2-methyl-1H-indazol-3(2H)-one], the 50% inhibitory concentration (IC50) was under 1000 nM.

With `Cc1ccc(OC(F)F)c(Cn2c3cc(C4=CCC(C(C)O)OC4)c(F)cc3c(=O)n2C)c1` (stereo not drawn) [Example #131, 1-(2-(Difluoromethoxy)-5-methylbenzyl)-5-fluoro-6-(6-(1-hydroxyethyl)-5,6-dihydro-2H-pyran-3-yl)-2-methyl-1H-indazol-3(2H)-one], the 50% inhibitory concentration (IC50) was under 1000 nM.

`Cc1ccc(OC(F)F)c(Cn2c3cc(C4=CCC(C(C)(C)O)OC4)c(F)cc3c(=O)n2C)c1` (stereo not drawn) [Example #132, 1-(2-(Difluoromethoxy)-5-methylbenzyl)-5-fluoro-6-(6-(2-hydroxypropan-2-yl)-5,6-dihydro-2H-pyran-3-yl)-2-methyl-1H-indazol-3(2H)-one]: the IC50 was under 1000 nM.

As for `Cn1c(=O)c2ccc(-c3cnc(C(C)(C)O)nc3)cc2n1Cc1cc(Cc2ccn[nH]2)ccc1OC(F)F` [Example #133, 1-(5-((1H-Pyrazol-5-yl)methyl)-2-(difluoromethoxy)benzyl)-6-(2-(2-hydroxypropan-2-yl)pyrimidin-5-yl)-2-methyl-1H-indazol-3(2H)-one], the IC50 was under 1000 nM.

On to `CC(=O)N1CCN(c2ncc(-c3ccc4c(=O)n(Cc5cccc(C#N)c5)n(Cc5ccccc5Cl)c4c3)cn2)C[C@H]1C` [Example #134*, (R)-3-((6-(2-(4-Acetyl-3-methylpiperazin-1-yl)pyrimidin-5-yl)-1-(2-chlorobenzyl)-3-oxo-1H-indazol-2(3H)-yl)methyl)benzonitrile], for which the concentration for half-maximal inhibition (IC50) lay within 1000 to 10000 nM.

On to `Cc1ccc(OC(F)F)c(Cn2c3cc(-c4cnn5c(C(C)(C)O)cnc5c4)ccc3c(=O)n2C)c1` [Example #135, 1-(2-(Difluoromethoxy)-5-methylbenzyl)-6-(3-(2-hydroxypropan-2-yl)imidazo[1,2-b]pyridazin-7-yl)-2-methyl-1H-indazol-3(2H)-one], for which the IC50 is under 1000 nM.
